# From US8530434B2, “Nitroxide free radical synergized antineoplastic agents” (The Trustees of California State University, priority 2006, dated 2013)
# Entries after “also recorded” stand apart in the source; their conditions may differ.
# Experiments:
# [1] = test system: MCF-7, human breast cancer cells and KB, human liver cancer cells; assay: LDH measurement of cytotoxicity; settings: for % cytotoxicity: LDH assay, 72 hours incubation, same conditions and same concentrations, rank among the four treatments, cell line not specified
# Method: MCF-7, human breast cancer cells and KB, human liver cancer cells were maintained in an RPMI 1640 medium, which was supplemented with 10% (v/v) heat-inactivated FBS and 1% (v/v) penicillin-streptomycin (100 U/mL penicillin G and 100 μg/mL streptomycin). The cells were incubated and then allowed to grow into a monolayer at a Petri dish at 37° C. in 5% CO2 and 90% relative humidity. The cells were detached by trypsinisation. Specifically, to detach the monolayer of cells, the medium was removed from the cell culture dish and the cells were washed by PBS buffer solution. Then 1 mL of the enzyme of trypsin was transferred to the cell dish and then the dish was incubated for 3 min. After the incubation, we transferred 4 mL of the RPMI 1640 medium to the cell dish and pipetted the cell suspension up and down to mix them well. The cell suspension was examined by inverted phase contrast microscope to make sure cells were separated into a single cell suspension. We transferred the cell suspension to a 10 mL-tube and centrifuged it to separate cell pellet from the medium. The cells were washed twice in the RPMI 1640 medium by centrifugation at 300×g for 5 min, and then the washed cells were re-suspended in 10 mL of medium. Cell number and viability were determined by using a dye of trypan blue, a special counting chamber, the hemocytometer and microscope. The cell density was calculated by the formula, cell concentration=(N1+N2+N3+N4+N5)×4×10^3 cells/mL, where N1 to N5 denote the counting numbers in the chamber. The cell suspension was diluted to a final concentration of 100,000 cells/mL in the RPMI 1640 medium.
# The cells were initially seeded in a 96-well plate with a cell density of 10,000 cells per well by transferring 100 μL of 100,000 cells/mL suspension to each well using a multi-pipette. The 96-well plate was incubated for 24 hours at 37° C. in a humidified, 5% CO2 atmosphere. After incubation of 24 h, the growth medium was removed and replaced with 100 μL of fresh medium with different concentrations of drugs in 3 repeats.
# Performed serial two-fold dilution from Row H to Row A. Use extra column as the negative control containing 100 μL of the medium and cells only. Before the drug solutions were administered, removed the growth medium from each well and then replace 100 μL of each drug solution. Each concentration had 3 repeats. Incubate the plate for 72 hours.
# 10 μl of Lysis Solution was added from row A to H, and incubated for 45 minutes in a humidified chamber at 37° C., under 5% CO2.
# 50 μl supernatant was transferred from all wells to a fresh 96-well flat bottom enzymatic assay plate. […] 50 μl Stop Solution was added to each well, and the absorbances were recorded at a wavelength of 490 nm within one hour after adding the stop solution.
# [2] = test system: short single strand DNA units comprising of 3′-ATCGT-5′; assay: 1H and 31P NMR study of interaction with short single strand DNA; format: binding; settings: 1:1 molar ratio with DNA in DMSO-d6, 600 MHz NMR
# Source text: (§1) We did the ^1H and ^31P NMR experiments at a 600 MHz NMR spectrometer for all three samples.
# [3] = Solubility in D2O (sample preparation for NMR)
# Source text: as §1
SMILES,% cytotoxicity [1],interaction with DNA (changes of 1H and 31P NMR spectra) [2],potency compared with co-administration of the two drugs ([1]; summary statement),solubility in D2O [3]
"CC1(C)CC(O)CC(C)(C)N1[O] [TEMPOL, 4-hydroxy-2,2,6,6-tetramethylpiperidine-N-oxyl]",the least; also recorded: very low % cytotoxicity,interacts with DNA,–,–
CC1(C)CC(OC(=O)CCCc2ccc(N(CCCl)CCCl)cc2)CC(C)(C)N1[O] [chlorambucil-TEMPOL adduct],the most % cytotoxicity,interact with the DNA collaboratively,higher potency than mere co-administration of the two drugs,weakly soluble
O=C(O)CCCc1ccc(N(CCCl)CCCl)cc1 [chlorambucil],the third,interaction of the alkylating agent with DNA,–,weakly soluble
